PubChem BioAssay AID248 (DTP/NCI, 2004)
Values joined by “and” are separate entries in the source; they are usually repeats but may differ in a detail not shown here. Identical values can stand only once. Toxic doses and inconclusive results are not listed. No stated cut-off is given here; in the data, active means T/C of 150% or more; inactive means T/C below 125%.

System: L1210 leukemia ip in BDF1 mice, survival T/C
Experiment: NCI In Vivo Anticancer Drug Screen. Data for tumor model L1210 Leukemia (intraperitoneal) in B6D2F1 (BDF1) mice
Settings: endpoint: mean survival time, higher = longer survival
In short: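 Survival endpoint. Drug-treated group vs vehicle group, expressed as T divided by C. Tumor passaged by transplantation.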

[1] = dose: 100.0 mg/kg/injection, schedule: Q01DX001 (ip), vehicle: saline with Tween-80
[2] = dose: 100.0 mg/kg/injection, schedule: Q01DX009 (ip), vehicle: saline with Tween-80
[3] = dose: 100.0 mg/kg/injection, schedule: Q04DX002 (ip), vehicle: saline with Tween-80
[4] = dose: 100.0 mg/kg/injection, schedule: Q04DX003 (ip), vehicle: saline with Tween-80
[5] = dose: 200.0 mg/kg/injection, schedule: Q01DX009 (ip), vehicle: saline with Tween-80
[6] = dose: 200.0 mg/kg/injection, schedule: Q04DX002 (ip), vehicle: saline with Tween-80
[7] = dose: 200.0 mg/kg/injection, schedule: Q04DX003 (ip), vehicle: saline with Tween-80
[8] = dose: 400.0 mg/kg/injection, schedule: Q01DX009 (ip), vehicle: saline with Tween-80
[9] = dose: 400.0 mg/kg/injection, schedule: Q04DX002 (ip), vehicle: saline with Tween-80
[10] = dose: 400.0 mg/kg/injection, schedule: Q04DX003 (ip), vehicle: saline with Tween-80
[11] = dose: 100.0 mg/kg/injection, schedule: Q04DX003 (ip), vehicle: saline
[12] = dose: 200.0 mg/kg/injection, schedule: Q04DX003 (ip), vehicle: saline
[13] = dose: 100.0 mg/kg/injection, schedule: Q01DX009 (ip), vehicle: Klucel (hydroxypropylcellulose) (HPC)
[14] = dose: 200.0 mg/kg/injection, schedule: Q01DX009 (ip), vehicle: Klucel (hydroxypropylcellulose) (HPC)
[15] = dose: 400.0 mg/kg/injection, schedule: Q01DX009 (ip), vehicle: Klucel (hydroxypropylcellulose) (HPC)

Measured: T/C

COC(=O)c1ccccc1NC(=S)NC(=O)C(C)Oc1ccccc1 (stereo not drawn)
inactive: [1] 111 % of control | [2] 108 % of control and 109 % of control | [3] 96 % of control and 108 % of control | [4] 107 % of control | dose: 200.0 mg/kg/injection, schedule: Q01DX001 (ip), vehicle: saline with Tween-80 95 % of control | [5] 95 % of control and 100 % of control | [6] 98 % of control and 107 % of control | [7] 98 % of control | dose: 400.0 mg/kg/injection, schedule: Q01DX001 (ip), vehicle: saline with Tween-80 98 % of control | [8] 92 % of control | [9] 101 % of control and 104 % of control | [10] 106 % of control

CC1=CC(=O)N(N)C1=O
inactive: [2] 102 % of control | [4] 98 % of control | [5] 104 % of control | [7] 100 % of control | [8] 100 % of control | [10] 96 % of control

Cc1ccc(S/C(=N\O)C(C)C)cc1
inactive: dose: 100.0 mg/kg/injection, schedule: Q04DX002 (ip), vehicle: Klucel (hydroxypropylcellulose) (HPC) 108 % of control | dose: 200.0 mg/kg/injection, schedule: Q04DX002 (ip), vehicle: Klucel (hydroxypropylcellulose) (HPC) 92 % of control | dose: 400.0 mg/kg/injection, schedule: Q04DX002 (ip), vehicle: Klucel (hydroxypropylcellulose) (HPC) 110 % of control

CC1CC(C)(C)N=C(C(C)CC(C)(C)C)O1 (stereo not drawn)
inactive: [11] 105 % of control | [12] 94 % of control

CCCCCCNc1c([N+](=O)[O-])cc(C)cc1[N+](=O)[O-]
inactive: [13] 100 % of control | dose: 100.0 mg/kg/injection, schedule: Q04DX003 (ip), vehicle: Klucel (hydroxypropylcellulose) (HPC) 103 % of control | [14] 111 % of control | dose: 200.0 mg/kg/injection, schedule: Q04DX003 (ip), vehicle: Klucel (hydroxypropylcellulose) (HPC) 116 % of control | [15] 96 % of control | dose: 400.0 mg/kg/injection, schedule: Q04DX003 (ip), vehicle: Klucel (hydroxypropylcellulose) (HPC) 108 % of control

CCCCCCCCC(=O)CCCCC
inactive: dose: 100.0 mg/kg/injection, schedule: Q01DX009 (ip), vehicle: saline 92 % of control | [11] 101 % of control | dose: 200.0 mg/kg/injection, schedule: Q01DX009 (ip), vehicle: saline 94 % of control | [12] 105 % of control | dose: 400.0 mg/kg/injection, schedule: Q04DX003 (ip), vehicle: saline 100 % of control

Cc1ccc(C(=O)/C=C/c2cccc3ccccc23)cc1
inactive: [2] 102 % of control | [3] 97 % of control | [5] 96 % of control | [6] 97 % of control | [8] 96 % of control | [9] 94 % of control

CCCCCCCCP(=O)(CCCC)CCCCCCCC
inactive: dose: 25.0 mg/kg/injection, schedule: Q01DX001 (ip), vehicle: saline with Tween-80 100 % of control | dose: 50.0 mg/kg/injection, schedule: Q01DX001 (ip), vehicle: saline with Tween-80 101 % of control | [1] 100 % of control and 104 % of control

CCOC(=O)N1C2CCC(C2)N1C(=O)OCC
inactive: dose: 100.0 mg/kg/injection, schedule: Q01DX001 (ip), vehicle: saline 103 % of control | dose: 200.0 mg/kg/injection, schedule: Q01DX001 (ip), vehicle: saline 100 % of control | dose: 400.0 mg/kg/injection, schedule: Q01DX001 (ip), vehicle: saline 103 % of control

O=C1N=C2C=CC=CN2C(=O)C1Cc1ccccc1 (stereo not drawn)
inactive: [2] 90 % of control | [4] 98 % of control | [5] 89 % of control | [7] 94 % of control | [8] 96 % of control | [10] 99 % of control

COc1cccc(C(Cc2ccccc2)NCc2ccccc2)c1 (stereo not drawn)
inactive: [13] 91 % of control | [14] 91 % of control | [15] 96 % of control

OC1CCC(O)C2CCC1S2 (stereo not drawn)
inactive: dose: 100.0 mg/kg/injection, schedule: Q01DX001 (ip), vehicle: steriod suspending solution 87 % of control | dose: 200.0 mg/kg/injection, schedule: Q01DX001 (ip), vehicle: steriod suspending solution 92 % of control | dose: 400.0 mg/kg/injection, schedule: Q01DX001 (ip), vehicle: steriod suspending solution 103 % of control
